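Where inhibition never reached the appropriate level, the endpoint shown equals the highest concentration tested. Otherwise, values were interpolated linearly from a five-concentration, 48-hour dose response in 96-well plates. GI50 marks 50% less growth. Definition used: TGI = concentration required for complete inhibition of growth.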
What was measured:
Test in all cases: inhibition of tumour cell growth, NCI panel, 48 h
[1] = tested on: SN12C renal
[2] = tested on: TK-10 renal
[3] = tested on: SK-MEL-28 melanoma
[4] = tested on: MDA-MB-231 breast
[5] = tested on: HOP-62 NSCLC
[6] = tested on: M14 melanoma
[7] = tested on: HCC-2998 colon
[8] = tested on: NCI-H226 lung
[9] = tested on: EKVX NSCLC
[10] = tested on: MOLT-4 leukemia

With `O=C1c2cc3c(cc2[C@@H]2[C@H]1c1ccc([N+](=O)[O-])cc1C(=O)N2CCCBr)OCO3` the GI50 [1] was less than 0.01 µM, the TGI [1] was less than 0.01 µM and the GI50 [2] was 0.134 µM. The TGI [2] was 4.04 µM, the GI50 [3] was less than 0.01 µM and the TGI [3] was greater than 100 µM. The GI50 [4] was 0.187 µM, the TGI [4] was 0.699 µM and the GI50 [5] was less than 0.01 µM. It also gave a TGI [5] of less than 0.0486 µM, a GI50 [6] of less than 0.01 µM and a TGI [6] of 0.318 µM. The GI50 [7] was less than 0.0125 µM, the TGI [7] was 0.117 µM and the GI50 [8] was less than 0.01 µM. The TGI [8] was less than 0.01 µM, the GI50 [9] was 0.0379 µM and the TGI [9] was 0.501 µM. The GI50 [10] was less than 0.01 µM and the TGI [10] was 0.0541 µM.

`O=c1cnn(C2OC(CO)C(O)C2O)c(=S)[nH]1` (stereo not drawn) was tested, and the TGI [1] was greater than 100 µM, the TGI [2] was greater than 100 µM and the TGI [3] was greater than 100 µM. It also gave a TGI [4] greater than 100 µM, a TGI [5] greater than 100 µM and a TGI [6] greater than 100 µM. The TGI [7] was greater than 100 µM, the TGI [8] was greater than 100 µM and the TGI [9] was greater than 100 µM. The TGI [10] was greater than 30.7 µM.

With `CC1CCC/C1=C(/I)C(=O)c1ccccc1` (stereo not drawn) the TGI [1] was greater than 100 µM, the TGI [2] was greater than 100 µM and the TGI [3] was greater than 100 µM. For the same compound, the TGI [4] was greater than 100 µM, the TGI [5] was greater than 100 µM and the TGI [6] was greater than 100 µM. The TGI [7] was greater than 100 µM, the TGI [8] was greater than 100 µM and the TGI [9] was greater than 100 µM. It also gave a TGI [10] of 45.2 µM.

`COc1ccc2c(c1)c(CC(=O)[Se]C)c(C)n2C(=O)c1ccc(Cl)cc1` showed a GI50 [1] greater than 0.49 µM, a TGI [1] greater than 1 µM and a GI50 [2] greater than 0.347 µM. The TGI [2] was greater than 0.543 µM, the GI50 [3] was greater than 0.202 µM and the TGI [3] was greater than 0.588 µM. It also gave a GI50 [4] greater than 0.383 µM, a TGI [4] greater than 0.637 µM and a GI50 [5] greater than 0.306 µM. For the same compound, the TGI [5] was greater than 0.615 µM, the TGI [6] was greater than 0.34 µM and the GI50 [7] was greater than 0.673 µM. It also gave a TGI [7] greater than 1 µM, a TGI [8] greater than 0.27 µM and a GI50 [9] greater than 0.229 µM. For the same compound, the TGI [9] was greater than 0.459 µM, the GI50 [10] was greater than 0.335 µM and the TGI [10] was greater than 1 µM.

In the case of `CC1=NN(C(=O)c2ccccc2O)C(=O)/C1=C/c1ccc(O)cc1`, the TGI [1] is reported as greater than 78.7 µM, the TGI [2] is reported as greater than 100 µM and the TGI [3] is reported as greater than 100 µM. It also gave a TGI [4] greater than 100 µM, a TGI [5] greater than 100 µM and a TGI [6] of 22.4 µM. The TGI [7] was greater than 100 µM, the TGI [8] was 41.2 µM and the TGI [9] was greater than 100 µM. It also gave a TGI [10] greater than 100 µM.

`O=C(/C=C/Sc1cc(C(F)(F)F)cc(C(F)(F)F)c1)c1ccc(Cl)cc1` showed a GI50 [1] of 1.71 µM, a TGI [1] of 3.46 µM and a GI50 [2] of 22.3 µM. The TGI [2] was 37.8 µM, the GI50 [3] was 4.74 µM and the TGI [3] was 17.1 µM. It also gave a GI50 [4] of 2.51 µM, a TGI [4] of 8.67 µM and a GI50 [5] of 18.3 µM. The TGI [5] was 32.7 µM, the GI50 [6] was 1.67 µM and the TGI [6] was 3.36 µM. It also gave a GI50 [7] of 19.2 µM, a TGI [7] of 33.4 µM and a GI50 [8] of 2.49 µM. It also gave a TGI [8] of 7.32 µM, a GI50 [9] of 14.3 µM and a TGI [9] of 30.5 µM. For the same compound, the GI50 [10] was 1.64 µM and the TGI [10] was 9.12 µM.

`Cc1cc([N+](=O)[O-])c(NS(=O)(=O)c2cccc(C(=O)O)c2)cc1-c1cccnc1` gave a GI50 [1] greater than 100 µM, a TGI [1] greater than 100 µM and a GI50 [2] greater than 100 µM. The TGI [2] was greater than 100 µM, the GI50 [3] was greater than 100 µM and the TGI [3] was greater than 100 µM. For the same compound, the GI50 [4] was greater than 100 µM, the TGI [4] was greater than 100 µM and the GI50 [5] was greater than 100 µM. It also gave a TGI [5] greater than 100 µM, a GI50 [6] greater than 100 µM and a TGI [6] greater than 100 µM. It also gave a GI50 [7] greater than 100 µM, a TGI [7] greater than 100 µM and a GI50 [8] greater than 100 µM. The TGI [8] was greater than 100 µM, the GI50 [9] was greater than 100 µM and the TGI [9] was greater than 100 µM. It also gave a GI50 [10] greater than 100 µM and a TGI [10] greater than 100 µM.

Work on `COc1cccc(-c2c[nH]c3c(N/N=C/c4ccncc4)ncnc23)c1` yielded a GI50 [1] of 1.65 µM, a TGI [1] greater than 19.3 µM and a GI50 [2] of 4.15 µM. For the same compound, the TGI [2] was 20.6 µM, the GI50 [3] was 3.42 µM and the TGI [3] was greater than 16 µM. For the same compound, the GI50 [4] was 3.83 µM, the TGI [4] was greater than 22.9 µM and the GI50 [5] was 3.74 µM. It also gave a TGI [5] greater than 15.3 µM, a GI50 [6] of 3.19 µM and a TGI [6] of 9.54 µM. The GI50 [7] was 4.36 µM, the TGI [7] was 15.8 µM and the GI50 [8] was 1.75 µM. It also gave a TGI [8] greater than 16 µM, a GI50 [9] of 7.06 µM and a TGI [9] of 24.1 µM. The GI50 [10] was 4.42 µM and the TGI [10] was 19.6 µM.
